US7045309B2, “9-substituted adenine derivatives as prodrug regulators of cell and tissue function” (The Research Foundation of State University of New York, priority 2000, dated 2006)
Read-outs that look alike come from different tables or passages of the source. Blank lines part the entries; values can stand above or below the compound they belong to.

What was measured:
[1] = target: rat brain adenylyl cyclase; conditions: cited from earlier work
Ob1771 pre-adipocytes = test: inhibition of forskolin-stimulated [3H]cAMP formation in cells prelabeled with [3H]adenine, Ob1771; assay type: cell-based; conditions: read-out: IC50, forskolin-stimulated [3H]cAMP formation, Ob1771 pre-adipocytes
Method: (§1) The nucleotide prodrugs were tested for their capacity to inhibit the forskolin-stimulated formation of [^3H]cAMP in cells that had been preloaded with [^3H]adenine. Human macrophages and two preadipocyte cell lines were tested.
(§2) (i) Preadipocytes: Preadipocytes were cultured in DMEM LG medium that was supplemented with 8% fetal bovine serum and 1% of an antibiotics mixture in 2 ml Petri dishes until they reached 90-95% confluence. Growth medium was removed and 1 ml of DMEM LG medium containing 2,8-[^3H]-adenine (5μCi) was added to each dish. Cells were incubated for 2 h at 37° C. Medium was removed and cells were incubated for 15 min at 37° C. in 1 ml of unsupplemented medium. The medium was removed and 1 ml of DMEM LG medium supplemented with 0.1 mg/ml bovine serum albumin and 0.1 mM 3-isobutyl-1-methylxanthine was added.
(§3) Ten microliters of a solution of the test substance was added to yield the appropriate concentration of inhibitor in the medium. After 15 min of incubation at 37° C. 3 μl of a 10 mM solution of forskolin in ethanol was added to the medium and the cells were further incubated for 15 min at 37° C. The medium was removed and the reaction was stopped by the addition of 1 ml of a freshly prepared solution of 0.5 mM solution of cAMP in 0.3 M perchloric acid. Dishes were then kept on ice for 30 min. To 800 μl of the resulting cell extract was then added 90 μl of 0.5 M triethanolammonium chloride butler (pH=7.5). The extract was then neutralized by addition of aqueous potassium hydroxide. [^3H]cAMP was purified from a 700 μl portion of this mixture by sequential chromatography on Dowex 50 and alumina as previously described. A portion of the purified sample was used to quantify the […] formed and the remainder was used to quantify recovery by UV spectroscopy.

F442A pre-adipocytes = test: inhibition of forskolin-stimulated [3H]cAMP formation in cells prelabeled with [3H]adenine, F442A; assay type: cell-based; conditions: 15 min preincubation, forskolin 15 min
Method: as §1, §2, §3

[2] = system: rat brain adenylyl cyclase; test: inhibition of rat brain adenylyl cyclase; assay type: biochemical
Method: (§4) Adenylyl cyclase activities were determined as previously described, with a reaction mixture containing 100 μM 5′ATP, 5 mM MnCl2, and 100 μM forskolin. IC50 values were determined graphically.

[3] = system: isoproterenol-stimulated, cAMP/PKA-dependent Cl− channel of cardiac ventricular myocytes; test: block of isoproterenol-stimulated Cl- channel in cardiac ventricular myocytes; assay type: cell-based; conditions: not shown, read-out: IC50 for block of Cl− channel function
[4] = system: adenylyl cyclase of Ob1771 cell membranes; test: inhibition of adenylyl cyclase of Ob1771 cell membranes; assay type: biochemical; conditions: for IC50: 100 μM 5′ATP, 5 mM MnCl2, 100 μM forskolin, determined graphically
Method: as §4

rat atria = test: contractility of isolated spontaneously contracting rat atria; conditions: preincubation with 10 μM for 15 min
Method: To test this, rat atria were excised from a male albino rat and attached to a strain gauge to allow contractions to be measured. The spontaneously contracting tissue was suspended in a chamber and allowed to equilibrate for 15 min in Krebs-Henseleit medium (Sigma K3753) supplemented with 25 mM […], 2.5 mM CaCl2, and 2 mM pyruvate, maintained at 37° and continuously gassed with […].

Human Macrophages = test: inhibition of forskolin-stimulated [3H]cAMP formation in cells prelabeled with [3H]adenine, macrophages; assay type: cell-based; conditions: read-out: IC50, forskolin-stimulated [3H]cAMP formation, Human Macrophages
Method: as §1
(ii) Macrophages. Macrophages were plated on culture dishes and allowed to adhere in RPMI culture medium. Cells were labeled with 2,8-[^3H]-adenine as described above for the preadipocytes.
as §3

preadipocyte cell lines = test: differentiation of preadipocyte cell lines; assay type: cell-based; conditions: both preadipocyte cell lines; not shown
[5] = system: adenylyl cyclase isolated from these tissues; test: effect on adenylyl cyclase isolated from the tissues; assay type: biochemical; conditions: concentrations up to 300 μM
[6] = Table 1, from Johnson and coll. [27-32], read-out: IC50 for rat brain adenylyl cyclase
[7] = Table 1, read-out: IC50 to inhibit adenylyl cyclase
[8] = Ob1771, 15 min preincubation, forskolin 15 min
[9] = 100 μM 5′ATP, 5 mM MnCl2, 100 μM forskolin, determined graphically, read-out: IC50, Rat Brain Adenylyl Cyclase
[10] = 2′-triphosphate forms, read-out: IC50 for inhibition of rat brain adenylyl cyclase

Structure (SMILES): CC1OC(n2cnc3c(N)ncnc32)CC1OP(=O)(O)OP(=O)(O)OP(=O)(O)OP(=O)(O)O (centres unmarked) [2′,5′ddAdo 3′˜PPPP]
IC50 [1, 6]: 0.0074 µM

Structure (SMILES): C[C@H]1O[C@@H](n2cnc3c(N)ncnc32)C[C@@H]1OP(=O)(O)OP(=O)(O)OP(=O)(O)O [2′,5′ddAdo 3′˜PPP]
IC50 [1, 7]: 0.04 µM

Structure (SMILES): CC1OC(n2cnc3c(N)ncnc32)CC1OP(=O)(O)OP(=O)(O)O (centres unmarked) [2′,5′ddAdo 3′˜PP]
IC50 [1, 6]: 0.1 µM

Structure (SMILES): C[C@H]1O[C@@H](n2cnc3c(N)ncnc32)C[C@@H]1OP(O)(O)=S [2′,5′ddAdo 3′˜PS]
IC50 [1, 6]: 0.6 µM

Structure (SMILES): C[C@H]1O[C@@H](n2cnc3c(N)ncnc32)C[C@@H]1OP(=O)(O)O [2′,5′ddAdo 3′˜P]
IC50 [1, 6]: 0.46 µM

Structure (SMILES): C[C@H]1O[C@@H](n2cnc3c(N)ncnc32)C[C@@H]1O [2′,5′ddAdo, 2′,5′-dideoxyadenosine]
IC50 [1, 6]: 2.7 µM

Structure (SMILES): Nc1ncnc2c1ncn2C1CC(OP(=O)(O)OP(=O)(O)OP(=O)(O)OP(=O)(O)O)C(CO)O1 (centres unmarked) [2′dAdo 3′˜PPPP]
IC50 [1, 6]: 0.0105 µM

Structure (SMILES): Nc1ncnc2c1ncn2C1CC(OP(=O)(O)OP(=O)(O)OP(=O)(O)O)C(CO)O1 (centres unmarked) [2′dAdo 3′˜PPP]
IC50 [1, 6]: 0.09 µM

Structure (SMILES): Nc1ncnc2c1ncn2C1CC(OP(=O)(O)OP(=O)(O)O)C(CO)O1 (centres unmarked) [2′dAdo 3′˜PP]
IC50 [1, 6]: 0.14 µM

Structure (SMILES): Nc1ncnc2c1ncn2[C@H]1C[C@H](OP(O)(O)=S)[C@@H](CO)O1 [2′dAdo 3′˜PS]
IC50 [1, 6]: 3.1 µM

Structure (SMILES): Nc1ncnc2c1ncn2[C@H]1C[C@H](OP(=O)(O)O)[C@@H](CO)O1 [2′dAdo 3′˜P]
IC50 [1, 6]: 1.2 µM

Structure (SMILES): Nc1ncnc2c1ncn2[C@H]1C[C@H](O)[C@@H](CO)O1 [2′dAdo]
IC50 [1, 6]: 15 µM

IC50 (Ob1771 pre-adipocytes; [8]): > 30 µM
Structure (SMILES): CC(C)(C)C(=O)SCCOP(=O)(OCCSC(=O)C(C)(C)C)O[C@H]1CCC[C@H]1n1cnc2c(N)ncnc21 [(1R,2S)-9-(cyclopentyl)-Ade-2′-P-bis(t-Bu-SATE)]

IC50 (Ob1771 pre-adipocytes; [8]): > 30 µM
Structure (SMILES): CC(C)(C)C(=O)SCCOP(=O)(OCCSC(=O)C(C)(C)C)O[C@@H]1CCC[C@@H]1n1cnc2c(N)ncnc21 [(1S,2R)-9-(cyclopentyl)-Ade-2′-P-bis(t-Bu-SATE)]

Structure (SMILES): Nc1ncnc2c1ncn2[C@@H]1O[C@H](CO)[C@@H](OP(=O)(O)OP(=O)(O)OP(=O)(O)O)[C@H]1O [Ado 3′˜PPP]
IC50 [1, 6]: 2 µM

Structure (SMILES): Nc1ncnc2c1ncn2C1OC(CO)C(OP(=O)(O)OP(=O)(O)O)C1O (centres unmarked) [Ado 3′˜PP]
IC50 [1, 6]: 3.9 µM

Structure (SMILES): Nc1ncnc2c1ncn2C1OC(CO)C(OP(=O)(O)O)C1O (centres unmarked) [Ado 3′˜P]
IC50 [1, 6]: 8.9 µM

Structure (SMILES): Nc1ncnc2c1ncn2[C@@H]1O[C@H](CO)[C@@H](O)[C@H]1O [Ado]
IC50 [1, 6]: 82 µM

Structure (SMILES): CC(=O)SCCOP(=O)(OCCSC(C)=O)O[C@H]1C[C@H](n2cnc3c(N)ncnc32)O[C@@H]1C [Compound 1, 2′,5′-dideoxyadenosine-3′-O-bis(S-acetyl-2-thioethyl) phosphate]
IC50 (F442A pre-adipocytes): 0.03 µM

Structure (SMILES): C[C@H]1O[C@@H](n2cnc3c(N)ncnc32)C[C@@H]1OP(=O)(OCCSC(=O)C(C)(C)C)OCCSC(=O)C(C)(C)C [Compound 2, 2,5′-dideoxyadenosine-3′-O-bis(S pivaloyl-2-thioethyl) phosphate]
IC50 (F442A pre-adipocytes): 0.1 µM | inhibition of Rat Brain Adenylyl Cyclase at 100 μM ([2]; at 100 μM): no inhibition | effect on the activity of adenylyl cyclases per se, enzyme from rat brain ([2]; isolated enzyme): no effect | IC50 [3]: ~0.082 µM | inhibition of adenylyl cyclase of Ob1771 cell membranes at 100 μM ([4]; at 100 μM): 20% inhibition | effect on the activity of adenylyl cyclases per se, enzyme from the preadipocytes ([4]; isolated enzyme): no effect | stimulation of contractility caused by phenylephrine (rat atria): completely blocked | stimulation of contractility caused by forskolin (rat atria; not shown): completely blocked | IC50 (Ob1771 pre-adipocytes; [8]): 0.03 µM | IC50 (Human Macrophages; human macrophages, 15 min preincubation, forskolin 15 min): 0.05 µM | rate of differentiation (preadipocyte cell lines): accelerated rates of differentiation | effect on adenylyl cyclase isolated from these tissues [5]: no effect

Structure (SMILES): C[C@H]1O[C@@H](n2cnc3c(N)ncnc32)C[C@@H]1OP(=O)(OCCSC(=O)c1ccccc1)OCCSC(=O)c1ccccc1 [Compound 3, 2,5′-dideoxyadenosine-3′-O-bis(S-benzoyl-2-thioethyl) phosphate]
IC50 (F442A pre-adipocytes): 0.8 µM

Structure (SMILES): C[C@H]1O[C@@H](n2cnc3c(N)ncnc32)C[C@@H]1OP(=O)(OCCSC(=O)C(C)(C)C)OCCSC(=O)C(C)(C)C [Compound 5, β-L-2′,5′-dideoxyadenosine-3′-O-bis(S-pivaloyl-2-thioethyl)-phosphate]
IC50 (F442A pre-adipocytes): ~2 µM

Structure (SMILES): CC(C)(C)C(=O)SCCOP(=O)(OCCSC(=O)C(C)(C)C)OC[C@@H]1CC[C@H](n2cnc3c(N)ncnc32)O1 [Compound 8, β-L-2′,3′-dideoxyadenosine-5′-O-bis(S-pivaloyl-2-thioethyl)-phosphate]
IC50 (Ob1771 pre-adipocytes; [8]): > 30 µM

Structure (SMILES): CC1OC(n2cnc3c(N)ncnc32)CC1OP1(=O)OCc2ccccc2O1 (centres unmarked) [Compound 10, 2′,5′-dideoxyadenosine-3.0-cyclosaligenyl phosphate]
IC50 [2, 9]: 7 µM | IC50 [4]: 30 µM | IC50 (Ob1771 pre-adipocytes): ~2 µM | IC50 (Human Macrophages; Homo sapiens, Macrophage): ~2 µM

Structure (SMILES): Cc1cccc2c1OP(=O)(OC1CC(n3cnc4c(N)ncnc43)OC1C)OC2 (centres unmarked) [Compound 11, 2′,5′-dideoxyadenosine-3′-O-cyclo-3-methyl-saligenyl phosphate]
IC50 [2, 9]: 7 µM | IC50 [4]: 60 µM | IC50 (Ob1771 pre-adipocytes): ~2 µM

IC50 (Ob1771 pre-adipocytes; [8]): > 30 µM
Structure (SMILES): CC(C)(C)C(=O)SCCOP(=O)(COCCn1cnc2c(N)ncnc21)OCCSC(=O)C(C)(C)C [Compound 13, bis(t-Bu-SATE)-9-(2-phosphonomethoxyethyl)-adenine]

Structure (SMILES): C[C@H](Cn1cnc2c(N)ncnc21)OCP(=O)(OCCSC(=O)C(C)(C)C)OCCSC(=O)C(C)(C)C [Compound 16, (R)-Bis(S-pivaloyl-2-thioethyl) 9-(2-phosphonylmethoxypropyl)-adenine]
IC50 (F442A pre-adipocytes): > 30 µM

Structure (SMILES): Nc1ncnc2c1ncn2CCOCP(=O)(O)O [PMEA, 9-(phosphonomethoxyethyl)-adenine]
IC50 [1, 6]: 65 µM

Structure (SMILES): Nc1ncnc2c1ncn2CCOCP(=O)(O)OP(=O)(O)OP(=O)(O)O [PMEApp]
IC50 [1, 7]: 0.17 µM

IC50 [2, 10]: 0.45 µM
Structure (SMILES): Nc1ncnc2c1ncn2[C@@H]1CCC[C@@H]1OP(=O)(O)OP(=O)(O)OP(=O)(O)O [reference compound]

IC50 [2, 10]: 9.86 µM
Structure (SMILES): Nc1ncnc2c1ncn2[C@H]1CCC[C@H]1OP(=O)(O)OP(=O)(O)OP(=O)(O)O [reference compound]

Structure (SMILES): Nc1ncnc2c1ncn2[C@@H]1CC[C@H](COP(=O)(O)O)O1 [β-L-2′,3′-dd-5′-AMP]
IC50 [1, 6]: 62 µM

Structure (SMILES): Nc1ncnc2c1ncn2C1CCC(COP(=O)(O)OP(=O)(O)OP(=O)(O)O)O1 [β-L-2′,3′-dd-5′-ATP]
IC50 [1, 7]: 0.024 µM

Structure (SMILES): Nc1ncnc2c1ncn2[C@H]1O[C@@H](COP(=O)(O)O)[C@H](O)[C@@H]1O [β-L-5′-AMP]
IC50 [1, 6]: 200 µM
